# Test results: ChEMBL document CHEMBL1143729, “Biotransformation of polymethoxylated flavonoids: access to their 4'-O-demethylated metabolites” (J Nat Prod, 2007)
# System: Aspergillus niger
# Assay: Inhibition of CYP450-mediated tangeretin demethylation in Aspergillus niger ATCC 9142 assessed as relative activity at 0.5 mM
row,relative activity,Structure (SMILES)
1,0%,CC1=CC(=O)c2ccccc2C1=O
2,10%,Clc1ccc(COC(Cn2ccnc2)c2ccc(Cl)cc2Cl)c(Cl)c1 (centres undefined)
3,40%,CC(C)(C(=O)c1cccnc1)c1cccnc1
4,0%,CCCC(C(=O)OCCN(CC)CC)(c1ccccc1)c1ccccc1
